From patent publication US8344028B2, “Gamma-amino-butyric acid derivatives as GABAB receptor ligands” (XenoPort, Inc., priority 2009, dated 2013)

These compounds were tested against GABAB receptor (Homo sapiens, UniProt Q9UBS5) (assay: GABAB receptor agonist or partial agonist activity by binding, electrophysiology, cAMP and/or Ca2+ assay methods (Examples 83-86)).
Format: cell-based
Protocol: An assay using rat cerebral cortex membranes was used to determine the affinity of GABAB receptor ligands for the GABAB receptor.
An assay buffer of 50 mM Tris pH 7.4 was prepared with 100 μM of isoguvacine, to block GABAA interactions. The assay buffer with isoguvacine was used for dilution of membranes, compounds, and radiolabel.
Rat cerebral cortex membranes were diluted in assay buffer at 1 mg/mL and aliquoted into a 96-well plate at 900 μL/well. Buffer or test compound were added at 20-times final concentration in the buffer at 50 μL/well. Membranes and test compounds or buffer were incubated for 10 min. at room temperature. Radiolableled [S—(R*,R*)]-[3-[[1-(3,4-dichlorophenyl)ethyl]amino]-2-hydroxypropyl](cyclohexylmethyl) phosphinic acid (CGP54626) was then added at 50 μL/well in the buffer at 1-10 nM concentration in 50 μl. […] The assay mixture was filtered using Brandell filtration apparatus and GFB filters, washed twice with 3 mL of 4° C., 50 mM Tris pH 7.4, buffer without isoguvacine. The filters were then dried at room temperature and the dried filters punched out and placed in individual vials. Three (3) mL of scintillation fluid was added to each vial and the radiolabel counted on the scintillation counter. The inverse amount of radiolabel was indicative of binding of a test compound to the GABAB receptor.
The following procedure was used to determine the level of intracellular cAMP. Recombinant HEK cells expressing the GABAB R1a2 receptor were used in the experiments. cAMP levels were measured using a cAMP XS^+ HitHunter™ Chemiluminescence Assay Kit (90-0075-02, GE Healthcare Biosciences Corp.). Cells were seeded overnight at 5,000 cells per well, in black, clear bottom 96-well plates. The following morning, cells were washed twice with 100 μL PBS per well. Forskolin was weighed out and dissolved in DMSO to a final concentration 100 mM. One-hundred (100) μM forskolin solutions were prepared in PBS with and without test compound at 1-times final concentration. Thirty (30) μL of the test solutions were added to the wells and incubated for 1 h at room temperature. The cAMP concentration was determined according to the protocol described in the cAMP assay kit, maintaining the plate at room temperature and in the dark. […] Each well was read for 6 seconds. The untransformed data was then analyzed.
The following procedure was used to determine the GABAB receptor agonist activity of a compound as reflected by activation of Ca^2+ signaling. HEK TREx cells expressing GABABR1a2 under tetracycline induction control, and Gqi chimeric protein (expressed constitutively), allowing GABABR coupling through the Ca^2+ signaling pathway were used in the experiments.
Cells were seeded in media containing tetracycline overnight at 100,000 cells/well, in black, clear-bottom, 96-well plates. The following morning, cells were washed twice with 100 μL HBSS buffer per well. Fluorescent Ca^2+ indicator dye was prepared using the materials and procedure described in the F362056 Fluo-4 NW Calcium Assay Kit (Invitrogen, Carlsbad, Calif.). Ten (10) mL of kit buffer and 100 μl of kit Probenecid were added to individual kit dye vials, and rolled back and forth several times to dissolve the dye. Cells were then loaded into the dye solution at 50 μL per well. The cells and dye were incubated for 30 min at 37° C., and then incubated for an additional 30 min at room temperature in the dark. Test compounds are dissolved in HBSS buffer at twice final concentration. Duplicate wells were used for each unique condition. Solution containing the test compound was added to the wells using a FLEXStation II (Molecular Devices, Sunnyvale, Calif.). Using the instrument in kinetic mode in which each well was read every 2 sec over a total collection time of 50 sec fluorescence was measured using an excitation wavelength 494 nm and a detection wavelength of 516 nm. A normalized fluorescence value for each well was calculated using the following procedure.

Sequence of GABAB receptor (Q9UBS5 20-961): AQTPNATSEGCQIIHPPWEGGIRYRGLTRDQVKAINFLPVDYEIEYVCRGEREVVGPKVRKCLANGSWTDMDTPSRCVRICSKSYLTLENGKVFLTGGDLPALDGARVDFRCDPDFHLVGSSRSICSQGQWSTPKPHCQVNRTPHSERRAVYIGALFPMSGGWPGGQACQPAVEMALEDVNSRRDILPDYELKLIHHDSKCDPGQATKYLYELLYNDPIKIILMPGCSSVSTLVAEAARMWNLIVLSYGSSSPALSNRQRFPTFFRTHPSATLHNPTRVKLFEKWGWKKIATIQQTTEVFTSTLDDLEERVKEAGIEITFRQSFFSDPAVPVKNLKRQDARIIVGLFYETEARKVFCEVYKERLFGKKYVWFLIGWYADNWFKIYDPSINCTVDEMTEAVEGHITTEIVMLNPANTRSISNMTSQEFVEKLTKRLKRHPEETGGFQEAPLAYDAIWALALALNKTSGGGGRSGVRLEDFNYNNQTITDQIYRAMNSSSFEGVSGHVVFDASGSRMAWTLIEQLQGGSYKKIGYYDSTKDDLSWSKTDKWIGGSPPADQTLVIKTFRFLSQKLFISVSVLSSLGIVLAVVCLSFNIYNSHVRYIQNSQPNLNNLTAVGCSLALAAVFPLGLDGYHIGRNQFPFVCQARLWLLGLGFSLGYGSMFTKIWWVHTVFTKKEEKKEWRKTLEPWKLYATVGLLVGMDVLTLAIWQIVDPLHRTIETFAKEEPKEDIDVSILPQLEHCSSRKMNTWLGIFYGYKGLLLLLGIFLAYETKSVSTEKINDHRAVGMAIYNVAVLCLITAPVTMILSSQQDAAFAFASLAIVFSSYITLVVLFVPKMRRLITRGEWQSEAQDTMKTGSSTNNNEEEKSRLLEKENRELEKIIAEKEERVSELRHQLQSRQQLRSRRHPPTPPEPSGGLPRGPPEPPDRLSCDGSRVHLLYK
Sequence of GABAB receptor (O75899 42-941 partner): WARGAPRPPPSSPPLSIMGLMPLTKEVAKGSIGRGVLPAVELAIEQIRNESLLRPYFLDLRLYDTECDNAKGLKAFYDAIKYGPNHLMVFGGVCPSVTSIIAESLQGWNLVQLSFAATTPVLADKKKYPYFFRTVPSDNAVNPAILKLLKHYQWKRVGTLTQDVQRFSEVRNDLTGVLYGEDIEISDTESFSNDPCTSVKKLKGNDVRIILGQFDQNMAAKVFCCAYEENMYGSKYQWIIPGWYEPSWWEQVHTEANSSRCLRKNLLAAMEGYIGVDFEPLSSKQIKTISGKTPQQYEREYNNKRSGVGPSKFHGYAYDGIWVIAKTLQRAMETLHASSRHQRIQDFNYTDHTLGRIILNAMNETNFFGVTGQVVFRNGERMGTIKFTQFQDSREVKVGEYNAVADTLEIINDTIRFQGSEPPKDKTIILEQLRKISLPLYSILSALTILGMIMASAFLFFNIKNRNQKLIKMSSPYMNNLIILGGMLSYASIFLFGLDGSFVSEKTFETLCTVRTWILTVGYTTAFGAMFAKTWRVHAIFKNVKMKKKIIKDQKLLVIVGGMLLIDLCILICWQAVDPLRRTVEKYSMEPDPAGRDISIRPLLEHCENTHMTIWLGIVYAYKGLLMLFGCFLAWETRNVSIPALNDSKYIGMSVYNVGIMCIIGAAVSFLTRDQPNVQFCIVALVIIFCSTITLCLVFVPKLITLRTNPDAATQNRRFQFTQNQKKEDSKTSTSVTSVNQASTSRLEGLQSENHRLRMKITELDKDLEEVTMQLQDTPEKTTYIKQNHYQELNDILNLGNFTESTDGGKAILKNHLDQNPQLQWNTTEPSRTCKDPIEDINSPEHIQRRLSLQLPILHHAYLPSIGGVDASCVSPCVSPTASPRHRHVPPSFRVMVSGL

| Structure (SMILES) | GABAB receptor agonist or partial agonist activity |
| --- | --- |
| NC[C@H](CC(=O)O)c1cc(Br)c(Cl)c(-c2cccnc2)c1 [(3R)-4-amino-3-(5-bromo-4-chloro-3-(3-pyridyl)phenyl)butanoic acid] | agonist or partial agonist activity |
| Cl.NC[C@H](CC(=O)O)c1ccc(Cl)c(NCc2cc(C(F)(F)F)cc(C(F)(F)F)c2)c1 [(3R)-4-amino-3-[3-({[3,5-bis(trifluoromethyl)phenyl]methyl}amino)-4-chlorophenyl]butanoic acid hydrochloride] | agonist or partial agonist activity |
| CC(C)(C)Oc1ccc(CNc2cc([C@H](CN)CC(=O)O)ccc2Cl)cc1.Cl [(3R)-4-amino-3-[3-({[4-(tert-butoxy)phenyl]methyl}amino)-4-chlorophenyl]butanoic acid hydrochloride] | agonist or partial agonist activity |
| Cl.N#Cc1cccc(-c2cc([C@H](CN)CC(=O)O)cc(Br)c2Cl)c1 [(3R)-4-amino-3-[3-bromo-4-chloro-5-(3-cyanophenyl]butanoic acid hydrochloride] | agonist or partial agonist activity |
| Cl.N#Cc1cccc(-c2cc(Cl)ccc2[C@H](CN)CC(=O)O)c1 [(3R)-4-amino-3-[4-chloro-2-(3-cyanophenyl)phenyl]butanoic acid hydrochloride] | agonist or partial agonist activity |
| Cl.NC[C@H](CC(=O)O)c1ccc(Cl)c(-c2ccc(Cl)cc2Cl)c1 [(3R)-4-amino-3-[4-chloro-3-(2,4-dichlorophenyl)phenyl]butanoic acid hydrochloride] | agonist or partial agonist activity |
| Cl.NC[C@H](CC(=O)O)c1ccc(Cl)c(-c2ccc(Cl)c(Cl)c2)c1 [(3R)-4-amino-3-[4-chloro-3-(3,4-dichlorophenyl)phenyl]butanoic acid hydrochloride] | agonist or partial agonist activity |
| Cl.NC[C@H](CC(=O)O)c1ccc(Cl)c(-c2ccc(O)c(Cl)c2)c1 [(3R)-4-amino-3-[4-chloro-3-(3-chloro-4-hydroxyphenyl)phenyl]butanoic acid hydrochloride] | agonist or partial agonist activity |
| Cl.N#Cc1cccc(-c2cc([C@H](CN)CC(=O)O)ccc2Cl)c1F [(3R)-4-amino-3-[4-chloro-3-(3-cyano-2-fluorophenyl)phenyl]butanoic acid hydrochloride] | agonist or partial agonist activity |
| Cl.N#Cc1cc(-c2cc([C@H](CN)CC(=O)O)ccc2Cl)ccc1F [(3R)-4-amino-3-[4-chloro-3-(3-cyano-4-fluorophenyl)phenyl]butanoic acid hydrochloride] | agonist or partial agonist activity |
| Cc1ccc(-c2cc([C@H](CN)CC(=O)O)ccc2Cl)cc1C#N.Cl [(3R)-4-amino-3-[4-chloro-3-(3-cyano-4-methylphenyl)phenyl]butanoic acid hydrochloride] | agonist or partial agonist activity |
| Cl.N#Cc1cc(O)cc(-c2cc([C@H](CN)CC(=O)O)ccc2Cl)c1 [(3R)-4-amino-3-[4-chloro-3-(3-cyano-5-hydroxyphenyl)phenyl]butanoic acid hydrochloride] | agonist or partial agonist activity |
| Cl.NC[C@H](CC(=O)O)c1ccc(Cl)c(-c2cc(Cl)ccn2)c1 [(3R)-4-amino-3-[4-chloro-3-(4-chloro(2-pyridyl))phenyl]butanoic acid hydrochloride] | agonist or partial agonist activity |
| Cc1cc(-c2cc([C@H](CN)CC(=O)O)ccc2Cl)ccc1Cl.Cl [(3R)-4-amino-3-[4-chloro-3-(4-chloro-3-methylphenyl)phenyl]butanoic acid hydrochloride] | agonist or partial agonist activity |
| Cl.N#Cc1cc(Cl)cc(-c2cc([C@H](CN)CC(=O)O)ccc2Cl)c1 [(3R)-4-amino-3-[4-chloro-3-(5-chloro-3-cyanophenyl)phenyl]butanoic acid hydrochloride] | agonist or partial agonist activity |
| Cl.N#Cc1cncc(-c2cc([C@H](CN)CC(=O)O)ccc2Cl)c1 [(3R)-4-amino-3-[4-chloro-3-(5-cyano(3-pyridyl))phenyl]butanoic acid hydrochloride] | agonist or partial agonist activity |
| Cl.N#Cc1cccc(-c2cc([C@H](CN)CC(=O)O)ccc2Cl)n1 [(3R)-4-amino-3-[4-chloro-3-(6-cyano(2-pyridyl))phenyl]butanoic acid hydrochloride] | agonist or partial agonist activity |
| Cl.NC[C@H](CC(=O)O)c1ccc(Cl)c(OCc2ccccc2)c1 [(3R)-4-amino-3-[4-chloro-3-(phenylmethoxy)phenyl]butanoic acid hydrochloride] | agonist or partial agonist activity |

Next, values leading:

| GABAB receptor agonist or partial agonist activity | Structure (SMILES) |
| --- | --- |
| agonist or partial agonist activity | Cl.NC[C@H](CC(=O)O)c1ccc(Cl)c(CCc2ccccn2)c1 [(3R)-4-amino-3-[4-chloro-3-(2-(2-pyridyl)ethyl)phenyl]butanoic acid hydrochloride] |
| agonist or partial agonist activity | NC[C@H](CC(=O)O)c1ccc(Cl)c(NC(=O)c2ccccn2)c1 [(3R)-4-amino-3-[4-chloro-3-(2-pyridylcarbonylamino)phenyl]butanoic acid] |
| agonist or partial agonist activity | Cl.NC[C@H](CC(=O)O)c1ccc(Cl)c(OCc2ccccn2)c1 [(3R)-4-amino-3-[4-chloro-3-(2-pyridylmethoxy)phenyl]butanoic acid hydrochloride] |
| agonist or partial agonist activity | Cl.NC[C@H](CC(=O)O)c1ccc(Cl)c(-c2cc(F)c(F)c(F)c2)c1 [(3R)-4-amino-3-[4-chloro-3-(3,4,5-trifluorophenyl)phenyl]butanoic acid hydrochloride] |
| agonist or partial agonist activity | Cl.N#Cc1ccc(O)c(-c2cc([C@H](CN)CC(=O)O)ccc2Cl)c1 [(3R)-4-amino-3-[4-chloro-3-(3-cyano-6-hydroxyphenyl)phenyl]butanoic acid hydrochloride] |
| agonist or partial agonist activity | NC[C@H](CC(=O)O)c1ccc(Cl)c(-c2ccsc2)c1 [(3R)-4-amino-3-[4-chloro-3-(3-thienyl)phenyl]butanoic acid] |
| agonist or partial agonist activity | Cl.NC[C@H](CC(=O)O)c1ccc(Cl)c(Cc2ccncc2)c1 [(3R)-4-amino-3-[4-chloro-3-(4-pyridylmethyl)phenyl]butanoic acid hydrochloride] |
| agonist or partial agonist activity | CN(C(=O)c1ccccc1)c1cc([C@H](CN)CC(=O)O)ccc1Cl.Cl [(3R)-4-amino-3-[4-chloro-3-(N-methylphenylcarbonylamino)phenyl]butanoic acid hydrochloride] |
| agonist or partial agonist activity | Cl.NCc1cccc(-c2cccc([C@H](CN)CC(=O)O)c2)c1 [(3R)-4-amino-3-{3-[3-(aminomethyl)phenyl]phenyl}butanoic acid hydrochloride] |
